For test [1], the target named is T1, human PPARδ (Homo sapiens, UniProt Q03181).
T1 construct: expressed in transfected cells; host or cells: Cos-7 cells (ATCC, CRL-1651)
T1 sequence (Q03181 211-439 limits assumed): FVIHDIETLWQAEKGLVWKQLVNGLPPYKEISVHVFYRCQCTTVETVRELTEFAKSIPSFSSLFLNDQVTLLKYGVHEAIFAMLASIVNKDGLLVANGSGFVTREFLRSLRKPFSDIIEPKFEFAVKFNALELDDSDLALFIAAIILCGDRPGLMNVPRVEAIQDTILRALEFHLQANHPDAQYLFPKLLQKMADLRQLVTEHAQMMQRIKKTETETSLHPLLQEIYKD
The test can be described thus: Reporter gene transactivation, hPPAR-GAL4 delta. Format: cell-based. Particulars: transfected Cos-7 cells, Gal-4 luciferase reporter, 24 hours treatment.

Test [2] relates to insulin-resistant male rat (Ico: ZUCKER-fa/fa). The test can be described thus: Normalization of metabolic parameters (cholesterol, plasma triglycerides) in insulin-resistant rat. The class given is in vivo. The following applies: oral route, once per day for four days, Zucker fa/fa rat unfed 16-18 hours; for change in vivo at 2.5 mg/kg / change in vivo at 10 mg/kg: 96 h. How it is done: Normalization of metabolic parameters (cholesterol, plasma triglycerides) in an insulin-resistant male rat (Ico: ZUCKER-fa/fa), unfed for 16-18 hours, after treatment by oral route, once per day for four days, with the compounds to be evaluated or their administration vehicle.
These metabolic parameters are measured by spectrophotometry at the beginning and the end of each animal's treatment.

Test [3] concerns the target T2, human PPARγ (Homo sapiens, UniProt P37231).
T2 construct: expressed in transfected cells; host or cells: Cos-7 cells (ATCC, CRL-1651)
T2 sequence (P37231 238-503 limits assumed): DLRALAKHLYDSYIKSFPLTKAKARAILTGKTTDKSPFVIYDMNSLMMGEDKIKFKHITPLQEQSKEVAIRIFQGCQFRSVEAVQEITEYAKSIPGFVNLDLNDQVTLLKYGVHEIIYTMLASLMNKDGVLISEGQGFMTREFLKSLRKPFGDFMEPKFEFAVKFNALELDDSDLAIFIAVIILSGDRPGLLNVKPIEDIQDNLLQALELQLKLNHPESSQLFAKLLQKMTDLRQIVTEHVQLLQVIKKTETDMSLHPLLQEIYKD
As to the kind of experiment: Reporter gene transactivation, hPPAR-GAL4 gamma. The class given is cell-based. The following applies: transfected Cos-7 cells, Gal-4 luciferase reporter, 24 hours treatment.

Test [4] addresses T3, human PPARα (Homo sapiens, UniProt Q07869).
T3 construct: expressed in transfected cells; host or cells: Cos-7 cells (ATCC, CRL-1651)
T3 sequence (Q07869 239-466 limits assumed): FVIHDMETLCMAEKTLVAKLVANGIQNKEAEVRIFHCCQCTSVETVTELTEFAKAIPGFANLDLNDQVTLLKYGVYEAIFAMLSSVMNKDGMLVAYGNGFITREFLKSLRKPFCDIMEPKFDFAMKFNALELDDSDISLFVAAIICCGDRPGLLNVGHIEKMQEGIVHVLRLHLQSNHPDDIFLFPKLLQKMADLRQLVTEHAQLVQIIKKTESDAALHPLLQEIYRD
As to the kind of experiment: Reporter gene transactivation, hPPAR-GAL4 alpha. Format: cell-based. Particulars: transfected Cos-7 cells, Gal-4 luciferase reporter, 24 hours treatment.

The mark [5] stands for this setting: at 2.5 mg/kg, read-out: Plasma cholesterol.
[6] abbreviates: at 10 mg/kg, read-out: Plasma cholesterol.
Setting [7] is: at 10 mg/kg, read-out: Plasma triglycerides.

Read-outs that look alike come from different tables or passages of the source.

Turning to `CCCCn1nc(OCCCCCc2cccc(OC(C)(C)C(=O)OCC)c2)c(=O)n(CCCC)c1=O` [Example 13, Ethyl 2-{3-[5-(2,4-dibutyl-3,5-dioxo-2,3,4,5-tetrahydro-[1,2,4]triazin-6-yloxy)-pentyl]-phenoxy}-2-methyl-propionate], the EC50 is around 3 µM in test [1], 0.1 to 0.3 µM in test [3] and 0.01 to 0.03 µM in test [4]. The change in vivo at 2.5 mg/kg in test [2] (setting [5]) was -8%. For the same compound, the change in vivo at 10 mg/kg in test [2] (setting [6]) is -12%; in test [2] (setting [7]), -28%. Moreover, the Plasma triglycerides result in test [2] (at 2.5 mg/kg) is “inactive at 2.5”.

Consider `CCCCCCCn1c(=O)c(NCCCCc2cccc(OC(C)(C)C(=O)OCC)c2)nn(Cc2ccccc2)c1=O` [Example 89, Ethyl 2-{3-[4-(2-benzyl-4-heptyl-3,5-dioxo-2,3,4,5-tetrahydro-[1,2,4]triazin-6-ylamino)-butyl]-phenoxy}-2-methyl-propionate], for which the EC50 in test [1] was 3 to 10 µM; in test [3] it was 1 to 3 µM; in test [4], above 10 µM.

For `CCCCCCCn1c(=O)c(NCCCOc2ccc(OC(C)(C)C(=O)OCC)cc2)nn(CCCC(F)(F)F)c1=O` [Example 48, Ethyl 2-(4-{3-[4-heptyl-3,5-dioxo-2-(4,4,4-trifluoro-butyl)-2,3,4,5-tetrahydro-[1,2,4]triazin-6-ylamino]-propoxy}-phenoxy)-2-methyl-propionate], the EC50 in test [1] was around 3 µM; in test [3], 0.3 to 1 µM; in test [4], 0.3 to 1 µM.

For the compound `CCCCCCCN(CCc1ccc(OC(C)(C)C(=O)OCC)cc1)c1nn(C)c(=O)n(C)c1=O` [Example 112, Ethyl 2-(4-{2-[(2,4-dimethyl-3,5-dioxo-2,3,4,5-tetrahydro-[1,2,4]triazin-6-yl)-heptyl-amino]-ethyl}-phenoxy)-2-methyl-propionate], the EC50 is 1 to 3 µM in test [1], around 10 µM in test [3] and 1 to 3 µM in test [4]. In addition, the change in vivo at 10 mg/kg is -43% in test [2] (setting [6]) and -31% in test [2] (setting [7]).

For `CCCCCCCN(CCc1ccc(OC(C)(C)C(=O)O)cc1)c1nn(C)c(=O)n(C)c1=O` [Example 113, 2-(4-{2-[(2,4-Dimethyl-3,5-dioxo-2,3,4,5-tetrahydro-[1,2,4]triazin-6-yl)-heptyl-amino]-ethyl}-phenoxy)-2-methyl-propionic Acid], the EC50 was 0.3 to 1 µM in test [1], 3 to 10 µM in test [3] and 0.3 to 1 µM in test [4]. In addition, the change in vivo at 2.5 mg/kg in test [2] (setting [5]) was -30%. Further, the change in vivo at 10 mg/kg in test [2] (setting [6]) is -40%; in test [2] (setting [7]), -26%. Besides, in test [2] (at 2.5 mg/kg), the Plasma triglycerides result is “inactive at 2.5”.

As for `CCCCCCCn1c(=O)c(NCCc2ccc(SC(C)(C)C(=O)OCC)cc2)nn(C)c1=O` [Example 122, Ethyl 2-{4-[2-(4-heptyl-2-methyl-3,5-dioxo-2,3,4,5-tetrahydro-[1,2,4]triazin-6-ylamino)-ethyl]-phenylsulfanyl}-2-methyl-propionate], the EC50 in test [1] was above 10 µM; in test [4] it was around 0.3 µM. The change in vivo at 10 mg/kg in test [2] (setting [6]) was -22%; in test [2] (setting [7]), -35%.

For `CCOC(=O)C(C)(C)Oc1cccc(CCCCNc2nn(CCCC(F)(F)F)c(=O)n(CC=C(C)C)c2=O)c1` [Example 76, Ethyl 2-methyl-2-(3-{4-[4-(3-methyl-but-2-enyl)-3,5-dioxo-2-(4,4,4-trifluoro-butyl)-2,3,4,5-tetrahydro-[1,2,4]triazin-6-ylamino]-butyl}-phenoxy)-propionate], the figures for the EC50 in test [1], in test [3] and in test [4] were 3 to 10 µM, 1 to 3 µM and 0.01 to 0.03 µM, respectively. Also, the change in vivo at 2.5 mg/kg in test [2] (setting [5]) was -16%. In addition, the change in vivo at 10 mg/kg in test [2] (setting [6]) is -22%; in test [2] (setting [7]) it was -7%.

`CCOC(=O)C(C)(C)Oc1cccc(OCCCOc2nn(CCCC(F)(F)F)c(=O)n(CCCC(F)(F)F)c2=O)c1` [Example 35, Ethyl 2-(3-{3-[3,5-dioxo-2,4-bis-(4,4,4-trifluoro-butyl)-2,3,4,5-tetrahydro-[1,2,4]triazin-6-yloxy]-propoxy}-phenoxy)-2-methyl-propionate]: the EC50 was around 10 µM in test [1], 3 to 10 µM in test [3] and 0.03 to 0.1 µM in test [4].

As for `CCOC(=O)C(C)(C)Oc1cccc(CCCNc2nn(CCCC(F)(F)F)c(=O)n(CCCC(F)(F)F)c2=O)c1` [Example 66, Ethyl 2-(3-{3-[3,5-dioxo-2,4-bis-(4,4,4-trifluoro-butyl)-2,3,4,5-tetrahydro-[1,2,4]triazin-6-ylamino]-propyl}-phenoxy)-2-methyl-propionate], the EC50 was around 10 µM in test [1], above 10 µM in test [3] and 0.03 to 0.1 µM in test [4]. Besides, the change in vivo at 10 mg/kg in test [2] (setting [6]) was -9%. Moreover, the Plasma triglycerides entry in test [2] (at 10 mg/kg) is “inactive at 10”.

On to `CCOC(=O)C(C)(C)Oc1cccc(CCCCNc2nn(CCCC(F)(F)F)c(=O)n(CCCC(F)(F)F)c2=O)c1` [Example 80, Ethyl 2-(3-{4-[3,5-dioxo-2,4-bis-(4,4,4-trifluoro-butyl)-2,3,4,5-tetrahydro-[1,2,4]triazin-6-ylamino]-butyl}-phenoxy)-2-methyl-propionate], for which the EC50 in test [1] was above 10 µM; in test [3], 0.3 to 1 µM; in test [4], 0.01 to 0.03 µM. For the same compound, the change in vivo at 10 mg/kg in test [2] (setting [6]) is -16%. In addition, the Plasma triglycerides result in test [2] (at 10 mg/kg) was “inactive at 10”.

With `CCCCn1c(=O)c(OCCCCCc2cccc(OC(C)(C)C(=O)OCC)c2)nn(CCCC(F)(F)F)c1=O` [Example 14, Ethyl 2-(3-{5-[4-Butyl-3,5-dioxo-2-(4,4,4-trifluoro-butyl)-2,3,4,5-tetrahydro-[1,2,4]triazin-6-yloxy]-pentyl}-phenoxy)-2-methyl-propionate], the values for the EC50 in test [1], in test [3] and in test [4] were around 10 µM, around 1 µM and 0.01 to 0.03 µM, respectively.

As for `CCCCCCCn1c(=O)c(OCCCCc2ccc(OC(C)(C)C(=O)OCC)cc2)nn(CCCC(F)(F)F)c1=O` [Example 31, Ethyl 2-(4-{4-[4-heptyl-3,5-dioxo-2-(4,4,4-trifluoro-butyl)-2,3,4,5-tetrahydro-[1,2,4]triazin-6-yloxy]-butyl}-phenoxy)-2-methyl-propionate], the EC50 is 3 to 10 µM in test [1], around 1 µM in test [3] and around 0.1 µM in test [4].

Regarding `CCCCCCCn1nc(NCCOc2ccc(OC(C)(C)C(=O)OCC)cc2)c(=O)n(C)c1=O` [Example 40, Ethyl 2-{4-[2-(2-heptyl-4-methyl-3,5-dioxo-2,3,4,5-tetrahydro-[1,2,4]triazin-6-ylamino)-ethoxy]-phenoxy}-2-methyl-propionate], the EC50 in test [1] is above 10 µM; in test [3], around 10 µM; in test [4], 3 to 10 µM.

Consider `CCOC(=O)C(C)(C)Oc1ccc(OCCCOc2nn(CCCC(F)(F)F)c(=O)n(CCCC(F)(F)F)c2=O)cc1` [Example 39, Ethyl 2-(4-{3-[3,5-dioxo-2,4-bis-(4,4,4-trifluoro-butyl)-2,3,4,5-tetrahydro-[1,2,4]triazin-6-yloxy]-propoxy}-phenoxy)-2-methyl-propionate], for which the values for the EC50 in test [1], in test [3] and in test [4] were around 3 µM, 3 to 10 µM and 0.1 to 0.3 µM, respectively.

For `CCCCCCCn1nc(NCCOc2ccc(OC(C)(C)C(=O)OCC)cc2)c(=O)n(CCCCCCC)c1=O` [Example 42, Ethyl 2-{4-[2-(2,4-diheptyl-3,5-dioxo-2,3,4,5-tetrahydro-[1,2,4]triazin-6-ylamino)-ethoxy]-phenoxy}-2-methyl-propionate], the EC50 is 1 to 3 µM in test [1], above 10 µM in test [3] and around 1 µM in test [4].

With `CCCCCCCn1nc(OCCCc2ccc(OC(C)(C)C(=O)OCC)cc2)c(=O)n(C)c1=O` [Example 27, Ethyl 2-{4-[3-(2-heptyl-4-methyl-3,5-dioxo-2,3,4,5-tetrahydro-[1,2,4]triazin-6-yloxy)-propyl]-phenoxy}-2-methyl-propionate], the half-maximal effective concentration (EC50) was 3 to 10 µM in test [1], 3 to 10 µM in test [3] and around 3 µM in test [4].

For `CCCCCCCn1nc(OCCCCc2ccc(OC(C)(C)C(=O)OCC)cc2)c(=O)n(C)c1=O` [Example 29, Ethyl 2-{4-[4-(2-heptyl-4-methyl-3,5-dioxo-2,3,4,5-tetrahydro-[1,2,4]triazin-6-yloxy)-butyl]-phenoxy}-2-methyl-propionate], the EC50 in test [1], in test [3] and in test [4] was 3 to 10 µM in each case.

The values are drawn from US7713971B2, “1,2,4-triazine derivatives, preparation and use thereof in human therapy” (Pierre Fabre Medicament, priority 2005, dated 2010).
